Results as given in patent publication US20230406831A1, “COMPOUNDS AND METHODS OF INHIBITING BACTERIAL CHAPERONIN SYSTEMS” (THE TRUSTEES OF INDIANA UNIVERSITY, priority 2020, published 2023).
Where two headings read alike, the source gives them in different places.

Columns and labels:
HSP60/10 = molecular target: T1, HSP60/10 (Homo sapiens, UniProt P10809); assay: HSP60/10-mediated dMDH refolding assay; format: biochemical
T1 construct: octa-Histidine (His8) tag, TEV-cleavable (N, cleaved yes); made in house; host or cells: HSP60 in Rosetta 2 (DE3) E. coli; HSP10 in Rosetta 2 (DE3) pLysS
T1 sequence (P10809 27-573): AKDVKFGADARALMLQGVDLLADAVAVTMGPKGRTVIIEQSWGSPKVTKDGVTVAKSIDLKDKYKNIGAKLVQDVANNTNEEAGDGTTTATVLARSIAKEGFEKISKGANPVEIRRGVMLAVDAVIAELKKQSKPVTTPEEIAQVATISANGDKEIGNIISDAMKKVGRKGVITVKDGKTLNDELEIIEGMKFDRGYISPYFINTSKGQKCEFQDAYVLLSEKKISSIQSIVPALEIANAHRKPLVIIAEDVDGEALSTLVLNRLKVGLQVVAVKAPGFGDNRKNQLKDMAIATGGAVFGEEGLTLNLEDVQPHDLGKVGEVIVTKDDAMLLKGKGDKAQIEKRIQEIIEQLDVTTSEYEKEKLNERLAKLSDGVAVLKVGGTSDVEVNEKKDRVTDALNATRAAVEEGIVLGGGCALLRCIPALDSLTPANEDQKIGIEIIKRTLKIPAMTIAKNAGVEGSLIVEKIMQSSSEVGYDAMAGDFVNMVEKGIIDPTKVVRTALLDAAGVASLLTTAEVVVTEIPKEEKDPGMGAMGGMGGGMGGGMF
Protocol: (§1) Evaluation of compounds ability to inhibit GroEL/ES and HSP60/10-mediated dMDH refolding assays.
(§2) Reagent preparation: For these assays, four primary reagent stocks were prepared: 1) GroEL/ES-dMDH or HSP60/10-dMDH binary complex stock; 2) ATP initiation stock; 3) EDTA quench stock; 4) MDH enzymatic assay stock. Denatured MDH (dMDH) was prepared by 2-fold dilution of MDH (5 mg/ml, soluble pig heart MDH from Roche, product #10127248001) with denaturant buffer (7 M guanidine-HCl, 200 mM Tris, pH 7.4, and 50 mM DTT). MDH was completely denatured by incubating at room temperature for 45 min. The binary complex solutions were prepared by slowly adding the dMDH stock to a stirring stock with GroEL (or HSP60) in folding buffer (50 mM Tris-HCl, pH 7.4, 50 mM KCl, 10 mM MglC2, and 1 mM DTT), followed by addition of GroES (or HSP10). The binary complex stocks were prepared immediately prior to dispensing into the assay plates and had final protein concentrations of 83.3 nM GroEL (Mr 800 kDa) or HSP60 (Mr 400 kDa), 100 nM GroES or HSP10 (Mr 70 kDa), and 20 nM dMDH in folding buffer. For the ATP initiation stock, ATP solid was diluted into folding buffer to a final concentration of 2.5 mM. Quench solution contained 600 mM EDTA (pH 8.0). The MDH enzymatic assay stock consisted of 20 mM sodium mesoxalate and 2.4 mM NADH in reaction buffer (50 mM Tris-HCl, pH 7.4, 50 mM KC1, and 1 mM DTT).
(§3) Assay Protocol: First, 30 μL aliquots of the GroEL/ES-dMDH or HSP60/10-dMDH binary complex stocks were dispensed into clear, 384-well polystyrene plates. Next, 0.5 μL of the compound stocks (10 mM to 4.6 μM, 3-fold dilutions series in DMSO) were added by pin-transfer (V&P Scientific). The chaperonin-mediated refolding cycles were initiated by addition of 20 IA of ATP stock (reagent concentrations during refolding cycle: 50 nM GroEL or HSP60, 60 nM GroES or HSP10, 12 nM dMDH, 1 mM ATP, and compounds of 100 μM to 46 nM, 3-fold dilution series). The refolding reactions were incubated at 37° C. The incubation time was determined from refolding time-course control experiments until they reached ˜90% completion of refolding cycle — generally ˜20-40 min for GroEL/ES, and ˜40-60 min for HSP60/10). Next, the assay was quenched by addition of 10 μL of the EDTA to final concentration of 100 mM. […] A340 nm measurements were recorded at 0.5 minutes (start point) and at successive time points until the amount of NADH consumed reached ˜90% (end point, generally between 20-35 minutes). The differences between the start and end point A340 values were used to calculate the % inhibition of the GroEL/ES or HSP60/10 machinery by the compounds. IC50 values for the test compounds were obtained by plotting the % inhibition results in GraphPad Prism 6 and analyzing by non-linear regression using the log (inhibitor) vs. response (variable slope) equation. Results presented represent the averages of IC50 values obtained from at least quadriplicate (duplicate of duplicate) replicates. For results, see Tables 1, 2, and 3.

GroEL/ES = molecular target: T2, GroEL/ES (Escherichia coli, UniProt P0A6F5); assay: GroEL/ES-mediated dMDH refolding assay; format: biochemical, E. coli
T2 construct: made in house; host or cells: GroEL in E. coli DH5a; GroES in E. coli BL21 (DE3)
T2 sequence (P0A6F5 2-548): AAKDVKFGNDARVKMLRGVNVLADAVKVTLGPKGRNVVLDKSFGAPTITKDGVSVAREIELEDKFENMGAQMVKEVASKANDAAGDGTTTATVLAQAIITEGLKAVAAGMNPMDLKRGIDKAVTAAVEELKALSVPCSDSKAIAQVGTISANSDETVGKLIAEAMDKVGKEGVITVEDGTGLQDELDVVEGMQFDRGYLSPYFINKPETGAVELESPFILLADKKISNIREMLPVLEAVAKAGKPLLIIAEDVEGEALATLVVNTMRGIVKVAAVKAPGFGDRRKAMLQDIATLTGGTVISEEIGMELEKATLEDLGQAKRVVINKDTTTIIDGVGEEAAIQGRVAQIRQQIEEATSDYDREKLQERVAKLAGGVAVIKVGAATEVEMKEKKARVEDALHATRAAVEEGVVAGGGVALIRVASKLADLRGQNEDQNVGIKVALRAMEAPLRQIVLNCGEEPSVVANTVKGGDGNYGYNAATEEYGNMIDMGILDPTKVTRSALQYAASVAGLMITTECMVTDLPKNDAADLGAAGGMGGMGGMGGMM
Protocol: as §1, §2, §3

S. aureus = S. aureus bacterial proliferation assay; format: cell-based; details: for EC50: Staphylococcus aureus, read-out: S. aureus Proliferation EC50
Protocol: Evaluation of compounds for inhibition of bacterial cell proliferation.
Growth Media: S. aureus bacteria were grown in Brain Heart Infusion (BHI) broth/agar (Becton, Dickinson and Company). All liquid cultures were grown in BHI media supplemented with 25 mg/L Ca^2+ and 12.5 mg/L Mg^2+ to mimic free physiological concentrations of these cations. A 10 mg/mL Ca^2+ stock solution was prepared by dissolving 3.68 g of CaCl2·2H^2O in 100 mL of deionized water, and a 10 mg/mL Mg^2+ stock solution was prepared by dissolving 8.36 g of […] in 100 mL deionized water. Both stock solutions were filter-sterilized using 0.2 μm pore size cellulose-acetate filters. 2.5 mL of the sterile 10 mg/mL Ca^2+ stock and 1.25 mL of the sterile 10 mg/mL Mg^2+ stock solutions were added per 1 L of autoclaved BHI medium to obtain 25 mg/L Ca^2+ and 12.5 mg/L Mg^2+ ions, respectively.
General Assay Protocol: Stock bacterial cultures were streaked onto BHI agar plates and grown overnight at 37° C. Fresh aliquots of broth were inoculated with single bacterial colonies and the cultures were grown overnight at 37° C. with shaking (240 rpm) in cation adjusted BHI media. The following morning, the overnight cultures were sub-cultured (1:5 dilution) into fresh aliquots of cation adjusted BHI media and grown at 37° C. for 1-2 hours with shaking. After 2 h, cultures were diluted into fresh media to achieve final OD600 readings of 0.017. Aliquots of these diluted cultures (30 μL) were added to clear, flat-bottom, 384-well polystyrene plates that were stamped with 0.5 μL of test compounds in 20 μL media. Compounds were evaluated in dose-response format where the inhibitor concentration range during the proliferation assay was 100 μM to 46 nM (3-fold dilution series). Plates were sealed with “Breathe Easy” oxygen permeable membranes (Diversified Biotech) and left to incubate at 37° C. without shaking (stagnant assay). OD600 nm readings were taken generally at 6-8 h, when bacteria had reached log-phase growth. A second set of baseline control plates were prepared analogously, but without any bacteria added, to correct for possible compound absorbance and/or precipitation. Plates were then read at 600 nm using a Molecular Devices SpectraMax Plus384 microplate reader. EC50 values for the test compounds were obtained by plotting the OD600 results in GraphPad Prism and analyzing by non-linear regression using the log(inhibitor) vs. response (variable slope) equation. For results, see Tables 1, 2, and 3.

[1] = Table 2, 37° C., 1 mM ATP, read-out: Biochemical Assay IC50 HSP60/10-dMDH Refolding
[2] = Table 2, cation adjusted BHI media, OD600 at 6-8 h
[3] = Table 3, 37° C., 1 mM ATP, read-out: Biochemical Assay IC50 HSP60/10-dMDH Refolding
[4] = Table 3, cation adjusted BHI media, OD600 at 6-8 h
[5] = Table 1, 37° C., 1 mM ATP, read-out: Biochemical Assay IC50 HSP60/10-dMDH Refolding
[6] = Table 1, cation adjusted BHI media, OD600 at 6-8 h

| SMILES | IC50 (HSP60/10; [1]) [µM] | IC50 (GroEL/ES) [µM] | S. aureus Proliferation EC50 (S. aureus; [2]) [µM] | IC50 (HSP60/10; [3]) [µM] | EC50 (S. aureus; [4]) [µM] | other results |
| --- | --- | --- | --- | --- | --- | --- |
| Cc1cc(C(C#N)c2ccc(Cl)cc2)c(Cl)cc1NC(=O)c1ccccc1 (centres unmarked) [Compound 82, N-(5-chloro-4-((4-chlorophenyl)(cyano)methyl)-2-methylphenyl)benzamide] | > 100 | 74 | > 100 | – | – | – |
| Cc1cc(C(C#N)c2ccc(Cl)cc2)c(Cl)cc1NC(=O)c1ccc(Cl)cc1O (centres unmarked) [Compound 56, 4-chloro-N-(5-chloro-4-((4-chlorophenyl)(cyano)methyl)-2-methylphenyl)-2-hydroxybenzamide] | 17 | 57 | – | – | – | EC50 (S. aureus; [2]): 0.013 µM |
| O=C(Nc1ccc(Oc2ccccc2)c(Cl)c1)c1cc(Cl)ccc1O [Compound 91, 5-chloro-N-(3-chloro-4-phenoxyphenyl)-2-hydroxybenzamide] | – | 51 | – | 22 | 0.21 | – |
| Cc1cc(C(C#N)c2ccc(Cl)cc2)c(Cl)cc1NC(=O)c1cccc(Cl)c1 (centres unmarked) [Compound 77, 3-chloro-N-(5-chloro-4-((4-chlorophenyl)(cyano)methyl)-2-methylphenyl)benzamide] | > 100 | 63 | > 100 | – | – | – |
| COc1ccc(Cl)cc1C(=O)Nc1ccc(CC#N)cc1 [Compound 110, 5-chloro-N-(4-(cyanomethyl)phenyl)-2-methoxybenzamide] | – | 54 | – | > 100 | > 100 | – |
| N#CCc1ccc(NC(=O)c2cc(Cl)ccc2O)cc1 [Compound 111, 5-chloro-N-(4-(cyanomethyl)phenyl)-2-hydroxybenzamide] | – | > 100 | – | > 100 | > 100 | – |
| O=C(Nc1ccc(Oc2ccc(Cl)cc2)c(Cl)c1)c1cc(Cl)ccc1O [Compound 87, 5-chloro-N-(3-chloro-4-(4-chlorophenoxy)phenyl)-2-hydroxybenzamide] | – | 30 | – | 9.5 | 0.17 | – |
| O=C(Nc1ccc(Oc2ccc(Cl)cc2)cc1)c1cc(Cl)ccc1O [Compound 89, 5-chloro-N-(4-(4-chlorophenoxy)phenyl)-2-hydroxybenzamide] | – | 46 | – | 45 | 0.36 | – |
| Cc1cc(C(C#N)c2ccc(Cl)cc2)c(Cl)cc1NC(=O)c1ccccc1Br (centres unmarked) [Compound 73, 2-bromo-N-(5-chloro-4-((4-chlorophenyl)(cyano)methyl)-2-methylphenyl)benzamide] | > 100 | 53 | > 100 | – | – | – |
| COc1ccc(C(=O)Nc2cc(Cl)c(C(C#N)c3ccc(Cl)cc3)cc2C)cc1 (centres unmarked) [Compound 63, N-(5-chloro-4-((4-chlorophenyl)(cyano)methyl)-2-methylphenyl)-4-methoxybenzamide] | > 100 | 65 | > 100 | – | – | – |
| O=C(Nc1ccc(CCc2ccccc2)cc1)c1cc(Cl)ccc1O [Compound 101] | – | 54 | – | 81 | 83 | – |
| COc1ccc(Cl)cc1C(=O)Nc1ccc(C(C#N)c2ccccc2)cc1 (centres unmarked) [Compound 84, 5-chloro-N-(4-(cyano(phenyl)methyl)phenyl)-2-methoxybenzamide] | – | 94 | – | > 100 | > 100 | – |
| COc1c(Cl)cc(Cl)cc1C(=O)Nc1cc(Cl)c(C(C#N)c2ccc(Cl)cc2)cc1C (centres unmarked) [Compound 51, 3,5-dichloro-N-(5-chloro-4-((4-chlorophenyl)(cyano)methyl)-2-methylphenyl)-2-methoxybenzamide] | 86 | 38 | > 100 | – | – | – |
| Cc1cc(C(C#N)c2ccc(Cl)cc2)c(Cl)cc1NC(=O)c1ccc(O)cc1 (centres unmarked) [Compound 66, N-(5-chloro-4-((4-chlorophenyl)(cyano)methyl)-2-methylphenyl)-4-hydroxybenzamide] | 35 | 47 | 4.9 | – | – | – |
| CC(=O)Oc1ccccc1C(=O)Nc1ncc([N+](=O)[O-])s1 [Nitazoxanide, reference compound] | – | > 100 | – | – | – | IC50 (HSP60/10; [5]): > 100 µM; EC50 (S. aureus; [6]): 12 µM |
| O=C(Nc1ccc(Cc2ccccc2)cc1)c1cc(Cl)ccc1O [Compound 99, N-(4-benzylphenyl)-5-chloro-2-hydroxybenzamide] | – | 77 | – | > 100 | > 100 | – |
| COc1ccc(Cl)cc1C(=O)Nc1ccccc1 [Compound 116, 5-chloro-2-methoxy-N-phenylbenzamide] | – | > 100 | – | > 100 | > 100 | – |
| Cc1cc(C(C#N)c2ccc(Cl)cc2)c(Cl)cc1NC(=O)c1ccc(N)cc1 (centres unmarked) [Compound 72, 4-amino-N-(5-chloro-4-((4-chlorophenyl)(cyano)methyl)-2-methylphenyl)benzamide] | 73 | 47 | > 100 | – | – | – |
| O=C(Nc1ccc(O)cc1)c1cc(Cl)ccc1O [Compound 115, 5-chloro-2-hydroxy-N-(4-hydroxyphenyl)benzamide] | – | > 100 | – | > 100 | > 100 | – |
| O=C(Nc1ccc(Oc2ccc(Cl)cc2)c(Cl)c1)c1cc(I)cc(I)c1O [Rafoxanide, reference compound] | – | – | – | – | – | IC50 (HSP60/10): 2.7 µM; IC50 (GroEL/ES; Table 1, 37° C., 1 mM ATP, read-out: Biochemical Assay IC50 GroEL/ES-dMDH Refolding): 3.8 µM; EC50 (S. aureus): 0.3 µM |
| Cc1cc(C(C#N)c2ccc(Cl)cc2)c(Cl)cc1NC(=O)c1cc(I)cc(I)c1O (centres unmarked) [Closantel, reference compound] | – | – | – | – | – | IC50 (HSP60/10; [5]): 3 µM; EC50 (S. aureus; [6]): 0.48 µM |
